The values that follow come from US8063221B2, “Aminoquinolones as GSK-3 inhibitors” (Kyorin Pharmaceutical Co., Ltd., priority 2006, dated 2011).

The structures appear in SMILES notation.

The target in the first assay is T1, recombinant full-length human GSK3β (Homo sapiens, UniProt P49841).
T1 construct: recombinant full-length human GSK3β (Upstate); purchased Upstate
T1 sequence (P49841 whole entry): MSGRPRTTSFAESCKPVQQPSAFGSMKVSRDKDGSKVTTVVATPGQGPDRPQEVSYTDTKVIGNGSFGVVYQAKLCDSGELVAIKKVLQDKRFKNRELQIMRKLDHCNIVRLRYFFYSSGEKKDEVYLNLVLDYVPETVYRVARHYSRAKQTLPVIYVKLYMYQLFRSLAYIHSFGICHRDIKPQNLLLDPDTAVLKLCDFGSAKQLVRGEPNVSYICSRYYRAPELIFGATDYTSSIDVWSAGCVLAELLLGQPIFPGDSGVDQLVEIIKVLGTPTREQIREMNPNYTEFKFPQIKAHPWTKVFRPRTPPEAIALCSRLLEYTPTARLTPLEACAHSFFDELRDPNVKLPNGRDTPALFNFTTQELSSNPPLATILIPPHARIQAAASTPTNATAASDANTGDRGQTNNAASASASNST
As to the kind of experiment: Luciferase-coupled cell-free GSK3β kinase assay. The assay is classed as biochemical. The following applies: Table 1. How it is done: For compounds in Tables 1 and 2, IC50 (μM) for GSK3β enzyme in cell free assay is provided as follows:
Luciferase-Coupled Protein Kinase Assays
All coupled-luciferase assays are performed by using a brief incubation with firefly luciferase (Promega) after completion of the kinase assay. KinaseGlo Plus is used for reading kinase reactions with ATP>10 μM, KinaseGlo for ATP <10 μM. The assay volume in a 384-well plate for the kinase reaction is 30 microliters.
10-25 ng of recombinant full-length human GSK3β (Upstate) is incubated in the presence or absence of compound at varying concentrations for 1 hour at 30 degrees Celsius in 20 mM MOPS, pH 7.0, 10 mM magnesium acetate, 0.2 mM EDTA, 2 mM EGTA, 30 mM magnesium chloride, 62.5 μM phospho-glycogen synthase peptide-2, 5 μM ATP, 10 mM β-glycerol phosphate, 1 mM sodium orthovanadate and 1 mM dithiothreitol. Proceed to KinaseGlo luciferase reaction (see below).
Following the completion of the kinase reaction an equal volume of KinaseGlo or KinaseGlo Plus luciferase reagent (Promega) is added and the luminescence read using a luminescence plate reader within 5-10 minutes. Compound activity is expressed as % inhibition relative to maximal inhibition observed at the maximal dose and IC50 values then calculated using curve fitting software (GraphPad Prizm).
A word on the IC50: it is the point on the concentration scale where inhibition reaches its midpoint. On to `Nc1ccc(CCNc2c(F)c(N)c3c(=O)c(C(=O)O)cn(C4CC4)c3c2F)cc1` [compound 2], for which the half-maximal inhibitory concentration (IC50) is 500 to 1000 nM.
Same read-out and setting: as for `Nc1c(F)c(NCCc2ccc(Cl)cc2)c(F)c2c1c(=O)c(C(=O)O)cn2C1CC1` [compound 4], the figure is 100 to 500 nM; as for `Nc1c(F)c(NCc2ccc(Cl)cc2)c(F)c2c1c(=O)c(C(=O)O)cn2C1CC1` [compound 8], 500 to 1000 nM; as for `Nc1c(F)c(NCCc2ccc(Cl)cc2)c(F)c2c1c(=O)ccn2C1CC1` [compound 9], 500 to 1000 nM.
The same measure, in the same setting: as for `Nc1c(F)c(NCc2ccc(Cl)cc2)c(F)c2c1c(=O)ccn2C1CC1` [compound 14], the figure is above 1000 nM.
The same measure, in the same setting: as for `Nc1c(F)c(NCCc2ccc(Cl)cc2Cl)c(F)c2c1c(=O)c(C(=O)O)cn2C1CC1` [compound 18], the figure is 500 to 1000 nM; as for `Nc1c(F)c(N2CCN(Cc3ccccc3)CC2)c(F)c2c1c(=O)c(C(=O)O)cn2C1CC1` [compound 22], above 1000 nM.
As to `Nc1c(F)c(NCCc2ccc(Cl)cc2Cl)c(F)c2c1c(=O)ccn2C1CC1` [compound 24], the half-maximal inhibitory concentration (IC50) is above 1000 nM.
Still for that read-out and setting: as for `CC(C)OCCCNc1c(F)c(N)c2c(=O)ccn(C3CC3)c2c1F` [compound 25], the figure is above 1000 nM.
The same measure, in the same setting: as for `Nc1c(F)c(NCCc2ccc(-c3ccccc3)cc2)c(F)c2c1c(=O)ccn2C1CC1` [compound 27], the figure is above 1000 nM; as for `Nc1c(F)c(NCCNC(=O)c2ccccc2)c(F)c2c1c(=O)c(C(=O)O)cn2C1CC1` [compound 30], 500 to 1000 nM.
Same read-out and setting: as for `Nc1c(F)c(NCCc2ccc(F)cc2F)c(F)c2c1c(=O)ccn2C1CC1` [compound 31], the figure is above 1000 nM.
In the case of `Nc1c(F)c(NCCc2ccccc2)c(F)c2c1c(=O)ccn2C1CC1` [compound 32], the concentration for half-maximal inhibition (IC50) lay within 500 to 1000 nM.
Still for that read-out and setting: as for `Nc1c(F)c(NCCNC(=O)c2ccccc2)c(F)c2c1c(=O)ccn2C1CC1` [compound 33], the figure is 500 to 1000 nM; as for `Nc1c(F)c(NCCNC(=O)c2ccc(F)cc2)c(F)c2c1c(=O)c(C(=O)O)cn2C1CC1` [compound 34], 100 to 500 nM; as for `Nc1c(F)c(NCCNC(=O)c2ccc(F)cc2)c(F)c2c1c(=O)ccn2C1CC1` [compound 35], 100 to 500 nM.
On the same count and under the same terms, as for `Nc1cc(NCCNc2ccccn2)cc2c1c(=O)c(C(=O)O)cn2C1CC1` [compound 36], the figure is above 1000 nM.
On the same count and under the same terms, as for `N#Cc1ccc(NCCNc2c(F)c(N)c3c(=O)c(C(=O)O)cn(C4CC4)c3c2F)nc1` [compound 37], the figure is 100 to 500 nM.
Regarding `Nc1c(F)c(NCCNC(=O)c2ccccn2)c(F)c2c1c(=O)c(C(=O)O)cn2C1CC1` [compound 38], the half-inhibitory concentration (IC50) is 500 to 1000 nM.
With `Nc1c(F)c(NCCNC(=O)c2ccc3ccccc3n2)c(F)c2c1c(=O)c(C(=O)O)cn2C1CC1` [compound 39], the half-inhibitory concentration (IC50) lay in the range of 500 to 1000 nM.
The same measure, in the same setting: as for `N#Cc1ccc(NCCNc2c(F)c(N)c3c(=O)ccn(C4CC4)c3c2F)nc1` [compound 40], the figure is 100 to 500 nM; as for `Nc1c(F)c(NCCNC(=O)c2ccncc2)c(F)c2c1c(=O)c(C(=O)O)cn2C1CC1` [compound 41], 500 to 1000 nM; as for `Nc1c(F)c(NCCn2ccnc2)c(F)c2c1c(=O)c(C(=O)O)cn2C1CC1` [compound 42], above 1000 nM.
As for `Nc1c(F)c(NCCn2cncn2)c(F)c2c1c(=O)c(C(=O)O)cn2C1CC1` [compound 44], the IC50 was above 1000 nM.
Still for that read-out and setting: as for `Nc1cc(NCCCc2ccccc2)cc2c1c(=O)c(C(=O)O)cn2C1CC1` [compound 45], the figure is above 1000 nM.

Staying with this assay, now noted: Table 2.
In the case of `COc1ccc(OCCNc2c(F)c(N)c3c(=O)c(C(=O)O)cn4c3c2OC[C@@H]4C)cc1` [Compound 87], the concentration for half-maximal inhibition (IC50) was 100 to 500 nM.
For `C[C@H]1COc2c(NCCN3CCC(c4ccccc4)C3)c(F)c(N)c3c(=O)c(C(=O)O)cn1c23` (some centres unmarked) [Example 91], the half-inhibitory concentration (IC50) is above 1000 nM.
On the same count and under the same terms, as for `Cc1nn(C)c(C)c1CCCNc1c(F)c(N)c2c(=O)c(C(=O)O)cn3c2c1OC[C@@H]3C` [Example 92], the figure is below 100 nM.
Same read-out and setting: as for `Cc1cc(NCCNc2c(F)c(N)c3c(=O)c(C(=O)O)cn4c3c2OC[C@@H]4C)c2ccccc2n1` [Example 94], the figure is below 100 nM; as for `C[C@H]1COc2c(NCCOc3ccc(-c4ccccc4)cc3)c(F)c(N)c3c(=O)c(C(=O)O)cn1c23` [Example 96], 500 to 1000 nM.
On the same count and under the same terms, as for `C[C@H]1COc2c(NCCC(c3ccccc3)c3ccc4c(c3)OCO4)c(F)c(N)c3c(=O)c(C(=O)O)cn1c23` (some centres unmarked) [Example 97], the figure is 100 to 500 nM; as for `CCOc1ccc(CCCNc2c(F)c(N)c3c(=O)c(C(=O)O)cn4c3c2OC[C@@H]4C)cc1OCC` [Example 98], below 100 nM; as for `C[C@H]1COc2c(NCCOc3ccccc3)c(F)c(N)c3c(=O)c(C(=O)O)cn1c23` [Example 99], below 100 nM.
On to `Cc1ccc2nc(C)cc(NCCNc3c(F)c(N)c4c(=O)c(C(=O)O)cn5c4c3OC[C@@H]5C)c2c1` [Example 100], for which the IC50 was below 100 nM.
As for `C[C@H]1COc2c(NCCCc3ccc(Cl)cc3)c(F)c(N)c3c(=O)c(C(=O)O)cn1c23` [Example 102], the IC50 is below 100 nM.
Same read-out and setting: as for `C[C@H]1COc2c(NCCC3CCCCC3)c(F)c(N)c3c(=O)c(C(=O)O)cn1c23` [Example 104], the figure is below 100 nM; as for `C[C@H]1COc2c(NCCOc3ccc(C(=O)O)cc3)c(F)c(N)c3c(=O)c(C(=O)O)cn1c23` [Example 105], below 100 nM.
With `C[C@H]1COc2c(NCCCc3ccccc3)c(F)c(N)c3c(=O)c(C(N)=O)cn1c23` [Example 106], the IC50 was below 100 nM.
Regarding `C[C@H]1COc2c(NCCCc3ccccc3)c(F)c(N)c3c(=O)c(C#N)cn1c23` [Example 108], the 50% inhibitory concentration (IC50) was below 100 nM.
Still for that read-out and setting: as for `C[C@H]1COc2c(NCCNc3ccccn3)c(F)c(N)c3c(=O)c(C#N)cn1c23` [Example 110], the figure is below 100 nM.
The same measure, in the same setting: as for `Cc1n[nH]c(SCCNc2c(F)c(N)c3c(=O)c(C(=O)O)cn4c3c2OC[C@@H]4C)n1` [Example 111], the figure is below 100 nM; as for `C[C@H]1COc2c(NCCSc3c[nH]c4ccccc34)c(F)c(N)c3c(=O)c(C(=O)O)cn1c23` [Example 116], below 100 nM.
The same measure, in the same setting: as for `C[C@H]1COc2c(NCCCNC(=O)c3ccccn3)c(F)c(N)c3c(=O)c(C(=O)O)cn1c23` [Example 117], the figure is below 100 nM; as for `C[C@H]1COc2c(NCCCNC(=O)c3cccnc3)c(F)c(N)c3c(=O)c(C(=O)O)cn1c23` [Example 118], below 100 nM.
For the compound `CC1COc2c(NCCNc3cccc4ccccc34)c(F)c(N)c3c(=O)c(C(=O)O)cn1c23` (centres unmarked) [compound 7], the IC50 is below 100 nM.
Still for that read-out and setting: as for `Nc1c(F)c(NCCCn2cc[n+]3ccccc23)c2c3c1c(=O)c(C(=O)O)cn3CCO2` [compound 10], the figure is 500 to 1000 nM; as for `Nc1c(F)c(NCCNc2ccccn2)c2c3c1c(=O)c(C(=O)O)cn3CCCO2` [compound 11], above 1000 nM.
The same measure, in the same setting: as for `C[C@H]1COc2c(NCCc3ccncc3)c(F)c(N)c3c(=O)c(C(=O)O)cn1c23` [compound 22], the figure is 100 to 500 nM.
As to `CC1(C)COc2c(NCCCOc3ccccc3)c(F)c(N)c3c(=O)c(C(=O)O)cn(c23)C1` [compound 28], the IC50 lay in the range of 100 to 500 nM.
On the same count and under the same terms, as for `CC1(C)COc2c(NCCNc3cccc(F)n3)c(F)c(N)c3c(=O)c(C(=O)O)cn1c23` [compound 35], the figure is below 100 nM.
Same read-out and setting: as for `Nc1c(F)c(NCCCn2cnc3ccccc32)c2c3c1c(=O)c(C(=O)O)cn3CCCO2` [compound 45], the figure is 100 to 500 nM; as for `Nc1c(F)c(NCCCc2ccccc2)c2c3c1c(=O)c(C(=O)O)cn3CCCO2` [compound 46], 100 to 500 nM; as for `CC1COc2c(NCCCn3cnc4ccccc43)c(F)c(N)c3c(=O)ccn1c23` (centres unmarked) [compound 47], 100 to 500 nM.
As for `Nc1c(F)c(NCCCn2ccnc2)c2c3c1c(=O)c(C(=O)O)cn3CCCO2` [compound 53], the IC50 lay in the range of 100 to 500 nM.
On the same count and under the same terms, as for `COc1c(NCCNc2cccc3ccccc23)c(F)c(N)c2c(=O)ccn(C3CC3)c12` [compound 66], the figure is below 100 nM; as for `C[C@H]1COc2c(NCCCN3CCc4ccccc43)c(F)c(N)c3c(=O)c(C(=O)O)cn1c23` [compound 68], 100 to 500 nM.
Still for that read-out and setting: as for `C[C@H]1COc2c(NCCN3CCc4ccccc43)c(F)c(N)c3c(=O)c(C(=O)O)cn1c23` [compound 69], the figure is below 100 nM.
The same measure, in the same setting: as for `CC(CCc1ccc(Cl)cc1)Nc1c(F)c(N)c2c(=O)c(C(=O)O)cn3c2c1OC[C@@H]3C` (some centres unmarked) [compound 71], the figure is below 100 nM; as for `COc1ccc(CCCNc2c(F)c(N)c3c(=O)c(C(=O)O)cn4c3c2OC[C@@H]4C)cc1` [compound 73], below 100 nM.
Turning to `CC(COc1ccc(Cl)cc1)Nc1c(F)c(N)c2c(=O)c(C(=O)O)cn3c2c1OC[C@@H]3C` (some centres unmarked) [compound 74], the IC50 fell in the range of 500 to 1000 nM.
On the same count and under the same terms, as for `C[C@H]1COc2c(NCCCc3ccccc3Cl)c(F)c(N)c3c(=O)c(C(=O)O)cn1c23` [compound 75], the figure is below 100 nM; as for `Cc1ccc(OCCNc2c(F)c(N)c3c(=O)c(C(=O)O)cn4c3c2OC[C@@H]4C)cc1` [compound 77], 100 to 500 nM.
The same measure, in the same setting: as for `CC(C)c1ccc(OCCNc2c(F)c(N)c3c(=O)c(C(=O)O)cn4c3c2OC[C@@H]4C)cc1` [compound 78], the figure is 100 to 500 nM; as for `COc1ccc(C(CCNc2c(F)c(N)c3c(=O)c(C(=O)O)cn4c3c2OC[C@@H]4C)c2ccc(F)cc2)cc1` (some centres unmarked) [compound 81], below 100 nM; as for `C[C@H]1COc2c(NCCCc3nc4ccccc4[nH]3)c(F)c(N)c3c(=O)c(C(=O)O)cn1c23` [compound 82], below 100 nM.
